Measurements taken from US7632819B1, “Methods and compositions for inhibiting PKC delta cleavage for treatment and prevention of neurodegeneration and apoptosis” (Iowa State University Research Foundation, Inc., priority 2004, dated 2009).
Where two headings read alike, the source gives them in different places. Where a SMILES comes first, the peptide text is derived from it. The star is where a group is joined. Cbz = O=C(OCc1ccccc1)*; CH2F = FC*

Tested on: N27 cells
Details: for potency in attenuating apoptosis compared with caspase-3 inhibitor DEVD-FMK, in words: 6-OHDA model
Method: […] Z is the abbreviation for N-benzyloxycarbonyl. Untreated cells were used as control samples. After the treatment, the cells were collected by trypsinization (Trypsin 0.25%, 1 mM EDTA), centrifuged at 200×g for 5 min, washed with PBS twice, then lysed. The lysate was used for DNA fragmentation assay.
DNA fragmentation assays were performed using a recently developed Cell Death Detection ELISA Plus Assay Kit. This is a fast, highly sensitive and reliable assay for the detection of early changes in apoptotic cell death. After treatments, 20 μl of cell lysate was processed according to the manufacturer's protocol. The assay solution consisted of a mixture of anti-histone biotin and anti-DNA-HRP directed against various histones and antibodies to both single stranded DNA and double stranded DNA, the major constituents of nucleosomes. After 2 hr incubation, unbound components were removed by washing with the incubation buffer supplied with the kit. Quantification of the nucleosomes retained by anti-DNA-HRP in the immunocomplex was determined spectrophotometrically with ABTS (2,2′-azino-di[3-ethoxybenzyl thiazoline sulfonate) as a HRP substrate (supplied with the kit). Measurements were made at 405 nm against an ABTS solution as a blank (reference wave length 490 nm).
Chemicals. Protease cocktail, ATP, protein-A-sepharose, protein-G-sepharose and anti-â-actin antibody were obtained from Sigma-Aldrich (St. Louis, Mo.); mouse tyrosine hydroxylase antibody was purchased from Chemicon (Temecula, Calif.); the rabbit polyclonal antibody for tyrosine hydroxylase was obtained from Calbiochem Bioscience, Inc. (King of Prussia, Pa.); rabbit PKCδ antibody was purchased from Santa Cruz Biotechnology, Inc. (Santa Cruz, Calif.); anti-rabbit and anti-mouse secondary antibodies and the ECL chemiluminescence kit were purchased from Amersham Pharmacia Biotech. (Piscataway, N.J.). Alexa 488 conjugated antirabbit/mouse, Cy3 conjugated anti-rabbit/mouse antibody and Hoechst 33342 were purchased from Molecular Probes, Inc. (Eugene, Oreg.). [ã-32P]ATP was purchased from Perkin Elmer Life Science Products (Boston, Mass.). The Bradford protein assay kit was purchased from Bio-Rad Laboratories (Hercules, Calif.). RPMI, fetal bovine serum, -glutamine, penicillin, and streptomycin were purchased from Invitrogen (Gaithersburg, Md.). Quantity One 4.2.0 software was purchased from Bio-Rad. Design and synthesis of z-DIPD-fmk (SEQ ID NO:5). To develop a cell permeable peptide inhibitor to specifically block PKCδ cleavage, we designed the tetrapeptide Asp-Ile-Pro-Asp (DIPD) (SEQ ID NO:5) corresponding to position 324-327 in rat PKCδ cDNA representing the caspase-3 cleavage site. Since this peptide is directed against the caspase-3 cleavage site of PKCδ, it should prevent the proteolytic cleavage and activation of PKCδ mediated by caspase-3. The custom synthesis of the tetrapeptide Z-Asp(OMe)-Ile-Pro-Asp(OMe)-FMK (SEQ ID NO:5) was performed at MP Biomedicals (Irvine, Calif.), a quality company that specializes in developing cell permeable peptide inhibitors directed against apoptosis cell signaling molecules. Briefly, the synthesis was performed with the reaction of Boc-D(OMe)-OH with MBFM (Magnesium benzyl fluoromalonate) to produce Beta-Keto fluoroester, followed by hydrogenation with Pd/c to produce Boc-D(OMe)FK, which was converted into Tfa salt using trifluoroacetic acid. Coupling of Tfa salt with Z-D(OMe)—I—P—OH in DMF with HOBT, HBTU DIEA and workup produced a crude product which was purified by column chromatography over silica gel. Elution with EtOAC:MeOH 95:5 gave pure fractions which were mixed and dried. Crystallization with EtOAC/Hexane, filtration and drying produced the pure product. Animals.

With CC[C@H](C)[C@H](NC(=O)[C@H](CC(=O)OC)NC(=O)OCc1ccccc1)C(=O)N1CCC[C@H]1C(=O)N[C@@H](CC(=O)OC)C(=O)CF [z-DIPD-fmk, Z-Asp(OMe)-Ile-Pro-Asp(OMe)-FMK] (Cbz-D(OMe)IPD(OMe)-CH2F) the “effect on 6-OHDA-induced DNA fragmentation / apoptotic cell death” value (100 μM 6-OHDA 24 hr, concentration not stated or dose-response 1-50 μM, listed as N-benzyloxycarbonyl-Asp(OMe)-Ile-Pro-Asp(OMe)-FMK) was “effectively blocked”, the “effect on 6-OHDA-induced DNA fragmentation” value (100 μM 6-OHDA 24 hr, inhibitor 50 μM) was “completely blocked” and the “effect on MPP+-induced DNA fragmentation” value (300 μM MPP+ 36 hr, inhibitor 50 μM) was “significantly attenuated”. For the same molecule, the “potency in attenuating apoptosis compared with caspase-3 inhibitor DEVD-FMK, in words” value was “much more potent”, the “potency in attenuating apoptosis compared with caspase-3 inhibitor DEVD-FMK, in words” value (listed as N-benzyloxycarbonyl-Asp(OMe)-Ile-Pro-Asp(OMe)-FMK) was “more potent” and the “effect on MPP+-induced DNA fragmentation” value (MPP+, inhibitor concentration not stated) was “dose-dependently attenuated”. For the same molecule, the “effect on MPP+-induced DNA fragmentation” value (MPP+, inhibitor concentration not stated, listed as N-benzyloxycarbonyl-Asp(OMe)-Ile-Pro-Asp(OMe)-FMK) was “inhibited”, the “potency relative to z-DEVD-fmk at protecting against 6-OHDA-induced apoptotic cell death” value (from IC50 values) was “at least 3 times” and the “effect on 6-OHDA-induced DNA fragmentation” value (inhibitor as low as 3 μM) was “almost completely inhibits”. It also gave an IC50 (read-out: IC50, 6-OHDA-induced DNA fragmentation (apoptotic cell death), 100 μM 6-OHDA 24 hr, inhibitor 1-50 μM) of 6 µM.
